In patent US9475775B2, “Benzazepine dicarboxamide compounds” (Hoffmann-La Roche Inc., priority 2015, dated 2016):

Columns and labels:
human TLR7 = human TLR7 (Homo sapiens (Human), UniProt Q9NYK1); experiment: HEK-Blue human TLR7 cells, NF-κB SEAP reporter assay; type: cell-based; settings: stimulation for 20 hours
Description: (§1) For TLR8 and TLR7 activity testing, HEK-Blue human TLR8 or TLR7 cells (Invivogen, San Diego, Calif., USA) are used, respectively. These cells are designed for studying the stimulation of human TLR8 or TLR7 by monitoring the activation of NF-κB. A SEAP (secreted embryonic alkaline phosphatase) reporter gene is placed under the control of the IFN-b minimal promoter fused to five NF-κB and AP-1-binding sites. Therefore the reporter expression is regulated by the NF-κB promoter upon stimulation of human TLR8 or TLR7 for 20 hours. The cell culture supernatant SEAP reporter activity was determined using Quanti Blue kit (Invivogen, San Diego, Ca, USA) at a wavelength of 640 nm, a detection medium that turns purple/blue in the presence of alkaline phosphatase. EC50 values were determined using Activity Base analysis (ID Business Solution, Limited).

human TLR8 = human TLR8 (Homo sapiens (Human), UniProt Q9NR97); experiment: HEK-Blue human TLR8 cells, NF-κB SEAP reporter assay; type: cell-based; settings: stimulation for 20 hours
human TLR8, sequence (Q9NR97 27-1041): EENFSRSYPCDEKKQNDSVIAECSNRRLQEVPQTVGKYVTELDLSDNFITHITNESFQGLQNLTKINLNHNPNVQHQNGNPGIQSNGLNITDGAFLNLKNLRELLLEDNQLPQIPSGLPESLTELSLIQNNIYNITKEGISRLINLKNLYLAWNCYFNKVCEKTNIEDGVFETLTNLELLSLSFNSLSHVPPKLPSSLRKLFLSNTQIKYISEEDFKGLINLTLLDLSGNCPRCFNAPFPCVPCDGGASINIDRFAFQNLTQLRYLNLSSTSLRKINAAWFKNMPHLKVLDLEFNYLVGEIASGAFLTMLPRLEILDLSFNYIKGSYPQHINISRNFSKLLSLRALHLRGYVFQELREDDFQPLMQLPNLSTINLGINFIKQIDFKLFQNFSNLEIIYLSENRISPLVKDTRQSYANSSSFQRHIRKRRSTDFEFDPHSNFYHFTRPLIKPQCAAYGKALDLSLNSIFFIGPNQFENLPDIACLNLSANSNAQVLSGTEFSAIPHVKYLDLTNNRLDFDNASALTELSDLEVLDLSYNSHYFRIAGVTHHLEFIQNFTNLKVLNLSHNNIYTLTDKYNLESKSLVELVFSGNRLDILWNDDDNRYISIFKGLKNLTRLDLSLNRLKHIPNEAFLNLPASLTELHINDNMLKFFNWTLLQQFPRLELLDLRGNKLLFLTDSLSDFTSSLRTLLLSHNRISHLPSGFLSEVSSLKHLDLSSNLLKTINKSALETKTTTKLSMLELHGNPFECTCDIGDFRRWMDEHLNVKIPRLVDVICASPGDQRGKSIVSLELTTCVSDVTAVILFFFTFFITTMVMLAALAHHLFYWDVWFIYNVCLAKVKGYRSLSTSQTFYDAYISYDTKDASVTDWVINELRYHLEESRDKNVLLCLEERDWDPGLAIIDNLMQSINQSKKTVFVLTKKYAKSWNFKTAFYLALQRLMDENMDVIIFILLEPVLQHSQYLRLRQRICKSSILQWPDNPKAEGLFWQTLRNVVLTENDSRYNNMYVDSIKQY
Description: as §1

human TLR7, sequence (Q9NYK1 27-1049): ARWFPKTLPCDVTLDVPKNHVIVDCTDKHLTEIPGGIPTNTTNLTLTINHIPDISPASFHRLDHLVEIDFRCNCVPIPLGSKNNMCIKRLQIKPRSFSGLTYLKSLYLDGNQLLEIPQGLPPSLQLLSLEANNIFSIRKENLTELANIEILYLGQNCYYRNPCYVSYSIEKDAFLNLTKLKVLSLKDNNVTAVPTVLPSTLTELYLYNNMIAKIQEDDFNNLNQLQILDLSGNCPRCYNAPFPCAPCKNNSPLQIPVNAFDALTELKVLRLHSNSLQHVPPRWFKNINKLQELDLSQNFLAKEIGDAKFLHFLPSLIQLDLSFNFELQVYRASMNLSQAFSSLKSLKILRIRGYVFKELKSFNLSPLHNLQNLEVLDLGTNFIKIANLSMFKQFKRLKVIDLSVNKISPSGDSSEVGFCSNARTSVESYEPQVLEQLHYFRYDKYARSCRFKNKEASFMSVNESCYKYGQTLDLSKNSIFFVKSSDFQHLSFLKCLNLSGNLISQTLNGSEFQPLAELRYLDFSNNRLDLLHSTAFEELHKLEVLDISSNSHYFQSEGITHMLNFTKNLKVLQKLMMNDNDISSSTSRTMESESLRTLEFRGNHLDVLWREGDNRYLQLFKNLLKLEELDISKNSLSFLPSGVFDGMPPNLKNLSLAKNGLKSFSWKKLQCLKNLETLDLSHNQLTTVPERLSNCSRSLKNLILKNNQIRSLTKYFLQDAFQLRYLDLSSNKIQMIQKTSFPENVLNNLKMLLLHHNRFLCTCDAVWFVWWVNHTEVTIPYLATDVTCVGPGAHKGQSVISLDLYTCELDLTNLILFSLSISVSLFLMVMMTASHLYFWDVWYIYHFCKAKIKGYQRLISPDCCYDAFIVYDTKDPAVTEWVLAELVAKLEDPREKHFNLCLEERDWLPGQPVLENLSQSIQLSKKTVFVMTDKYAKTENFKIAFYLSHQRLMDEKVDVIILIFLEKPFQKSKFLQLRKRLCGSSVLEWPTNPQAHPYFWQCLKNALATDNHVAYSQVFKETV

Compound	EC50 (human TLR7)	EC50 (human TLR8)
CCCN(CCC)C(=O)C1=Cc2ccc(C(=O)Nc3cccnc3)cc2N=C(N)C1 [Example 1, 2-Amino-N4,N4-dipropyl-N8-(3-pyridyl)-3H-1-benzazepine-4,8-dicarboxamide]	80800 nM	1 nM
CCCN(CCC)C(=O)C1=Cc2ccc(C(=O)Nc3cncnc3)cc2N=C(N)C1 [Example 2, 2-Amino-N4,N4-dipropyl-N8-pyrimidin-5-yl-3H-1-benzazepine-4,8-dicarboxamide]	> 100000 nM	1 nM
CCCN(CCC)C(=O)C1=Cc2ccc(C(=O)Nc3ccncc3)cc2N=C(N)C1 [Example 3, 2-Amino-N4,N4-dipropyl-N8-(4-pyridyl)-3H-1-benzazepine-4,8-dicarboxamide]	70100 nM	13 nM
CCCN(CCC)C(=O)C1=Cc2ccc(C(=O)Nc3ccccc3)cc2N=C(N)C1 [Example 4, 2-Amino-N8-phenyl-N4,N4-dipropyl-3H-1-benzazepine-4,8-dicarboxamide]	> 100000 nM	7 nM
CCCN(CCC)C(=O)C1=Cc2ccc(C(=O)Nc3ccc(CN)nc3)cc2N=C(N)C1 [Example 5, 2-Amino-N8-[6-(aminomethyl)-3-pyridyl]-N4,N4-dipropyl-3H-1-benzazepine-4,8-dicarboxamide]	> 100000 nM	3 nM
CCCN(CCC)C(=O)C1=Cc2ccc(C(=O)Nc3cncc(CO)c3)cc2N=C(N)C1 [Example 6, 2-Amino-N8-[5-(hydroxymethyl)-3-pyridyl]-N4,N4-dipropyl-3H-1-benzazepine-4,8-dicarboxamide]	> 100000 nM	8 nM
CCCN(CCC)C(=O)C1=Cc2ccc(C(=O)Nc3ccc(CO)nc3)cc2N=C(N)C1 [Example 7, 2-Amino-N8-[6-(hydroxymethyl)-3-pyridyl]-N4,N4-dipropyl-3H-1-benzazepine-4,8-dicarboxamide]	> 100000 nM	15 nM
CCCN(CCC)C(=O)C1=Cc2ccc(C(=O)Nc3cccc(S(C)(=O)=O)c3)cc2N=C(N)C1 [Example 8, 2-Amino-N8-(3-methylsulfonylphenyl)-N4,N4-dipropyl-3H-1-benzazepine-4,8-dicarboxamide]	44000 nM	10 nM
CCCN(CCC)C(=O)C1=Cc2ccc(C(=O)Nc3cncs3)cc2N=C(N)C1 [Example 9, 2-Amino-N4,N4-dipropyl-N8-thiazol-5-yl-3H-1-benzazepine-4,8-dicarboxamide]	> 100000 nM	3 nM
CCCN(CCC)C(=O)C1=Cc2ccc(C(=O)Nc3ccc(Cl)cc3)cc2N=C(N)C1 [Example 10, 2-Amino-N8-(4-chlorophenyl)-N4,N4-dipropyl-3H-1-benzazepine-4,8-dicarboxamide]	> 100000 nM	2 nM
CCCN(CCC)C(=O)C1=Cc2ccc(C(=O)Nc3nccs3)cc2N=C(N)C1 [Example 11, 2-Amino-N4,N4-dipropyl-N8-thiazol-2-yl-3H-1-benzazepine-4,8-dicarboxamide]	> 100000 nM	29 nM
CCCN(CCC)C(=O)C1=Cc2ccc(C(=O)Nc3cncn3C)cc2N=C(N)C1 [Example 12, 2-Amino-N8-(3-methylimidazol-4-yl)-N4,N4-dipropyl-3H-1-benzazepine-4,8-dicarboxamide]	> 100000 nM	4 nM
CCCN(CCC)C(=O)C1=Cc2ccc(C(=O)Nc3ccc(F)cc3)cc2N=C(N)C1 [Example 13, 2-Amino-N8-(4-fluorophenyl)-N4,N4-dipropyl-3H-1-benzazepine-4,8-dicarboxamide]	> 100000 nM	7 nM
CCCN(CCC)C(=O)C1=Cc2ccc(C(=O)Nc3cccc(C)c3)cc2N=C(N)C1 [Example 14, 2-Amino-N8-(m-tolyl)-N4,N4-dipropyl-3H-1-benzazepine-4,8-dicarboxamide]	> 100000 nM	1 nM
CCCN(CCC)C(=O)C1=Cc2ccc(C(=O)Nc3cccc(C(=O)N4CCCC4)c3)cc2N=C(N)C1 [Example 15, 2-Amino-N4,N4-dipropyl-N8-[3-(pyrrolidine-1-carbonyl)phenyl]-3H-1-benzazepine-4,8-dicarboxamide]	> 100000 nM	2 nM
